Non-standard residues stand in square brackets, D forms with d. Residues, ends and D or L forms follow the SMILES beside them. Dolaproine = CO[C@@H]([C@@H]1CCCN1)[C@@H](C)C(=O)O; Dil = CC[C@H](C)[C@H](NC)[C@@H](CC(=O)O)OC; NMeV = CN[C@H](C(=O)O)C(C)C
What was measured:
[1] = Pharmacokinetic study of MMAF in rat (IV and PO), plasma by LC-TOF-MS/MS; type: in vivo; conditions: male SD rat
Experimental: Twenty microliters of rat plasma samples were placed in a cluster tube. Four microliters (make-up solution) of DMSO were added to the cluster tube, and 100 μL of ACN was also added. The mixture was capped and vortexed, and then centrifuged for 5 min at 12,000 rpm (4 °C). Following the centrifugation, 70 μL supernatant was transferred to an LC vial and diluted by adding 140 μL of DW.
(§1) LC-TOF-MS/MS was consisted of a Shimadzu CBM-20A/LC-20AD chromatographic system (Shimadzu Scientific Instruments, Columbia, MD, USA), with an eksigent CTC HTS PAL auto-sampler (Sciex, Redwood City, CA, USA) and a quadrupole time-of-flight TripleTOF 5600 mass spectrometer (Sciex, Redwood City, CA, USA). Kinetex XB-C18 column (2.1 × 50 mm, Phenomenex) for quantification and Kinetex XB-C18 column (2.1 × 100 mm, Phenomenex) for metabolite profiling studies were used as analytical columns. The LC mobile phase consisted of DW containing 0.1% formic acid (phase A) and ACN containing 0.1% formic acid (phase B). The flow rate was 0.4 mL/min for quantification and 0.3 mL/min for Met ID while maintaining the column temperature at 55 °C. Injection volume was 10 μL.
(1) Quantification: For TOF-MS/MS scan, the scan range was m/z 100~900. The protonated [M + H]^+ ion of MMAF (m/z 732.5) was used and its product ions at m/z 700.5 and m/z 520.3 were selected as the quantitative ion and the qualitative ion, respectively. The source temperature was set at 500 °C. The curtain gas flow was set at 30 L/min. The ion spray voltage (IVSF) was set at 5500 V. The declustering potential (DP) was 100 V, and the collision energy (CE) was 36 V.
Data acquisition and LC-MS/MS operation were conducted using Analyst® TF Version 1.6 (Sciex, Redwood City, CA, USA). MultiQuant® Version 2.1.1 (Sciex, Redwood City, CA, USA) was used for peak integration for MMAF quantification. The descriptive statistics for the qualification studies were calculated with Excel 2015 (Microsoft, Seoul, Korea). Pharmacokinetic parameters were calculated in a non-compartmental analysis using WinNonlin® version 8.0.0 (Certara, Princeton, NJ, USA). PeakView® Version 2.2 (Sciex, Redwood City, CA, USA) and MetabolitePilot^TM Version 2.0.2 (Sciex, Redwood City, CA, USA) were used for the structural elucidation of metabolites. MedChem Designer (Simulations Plus, Inc, Lancaster, CA, USA) was used for in silico metabolite prediction.
Male Sprague-Dawley (SD) rats were used for rat PK studies of MMAF. For rat PK studies of MMAF, rats were distributed into two different groups (5 mg/kg IV (intravenous) group and 10 mg/kg PO (oral) group). After IV or PO dose, blood samples were collected to heparinized tubes and centrifuged immediately at 10,000 rpm for 5 min. The sampling times were 0, 2, 5, 15, 30, 60, 90, 120, 240, 360, and 1440 min for IV PK and 0, 5, 15, 30, 60, 90, 120, 240, 360, and 1440 min for PO PK. The supernatant was transferred to a clean tube and stored at −80 °C until analysis.

[2] = Preliminary stability tests of MMAF in rat plasma; type: in vitro ADME; conditions: for Short-term stability, mean concentration / Short-term stability, accuracy %: RT, 4 h; for Short-term stability, accuracy % / Long-term stability, accuracy % / Freeze-thaw stability, accuracy %: n = 3; for Freeze-thaw stability, accuracy %: three cycles
Experimental: Preliminary stability tests were performed in rat plasma under 4 different conditions, including short-term, freeze-thaw, long-term, and post-preparative stability. The short-term stability was assessed at room temperature (RT) for 4 hrs. The long-term stability was assessed by comparing the freshly prepared control samples to the samples kept frozen for 4 weeks at −80 °C. For the freeze-thaw stability, the stability-test samples were subjected to three freeze and thaw cycles at −80 °C. The post-preparative stability was assessed for the QC samples kept in an auto-sampler (10 °C) for 12 hrs.
The acceptance criteria for all of the qualification were within ±15% of the precision and accuracy.

[3] = In vitro metabolite profiling in rat liver microsome; type: in vitro ADME; conditions: 90 min, 37 °C
Text: as §1
(§2) (2) Metabolite profiling: The mass spectrometric conditions for the metabolite profiling of MMAF were as follows. The information-dependent analysis (IDA) with high-resolution TOF full scan was operated with electrospray ionization (ESI) in positive ion mode using real-time multiple mass defect filtering (MDF) and dynamic background subtraction. The IDA method consisted of TOF scan (m/z 50 to 1200) for the detection of MMAF and its metabolites. The method was followed by 6 TOF-MS/MS dependent scans (m/z 50 to 1200) for structural elucidation. […]

[4] = In vitro metabolite profiling in human liver microsome; type: in vitro ADME; conditions: 90 min, 37 °C
Text: as §1, §2

[5] = qualitative comparison; cited from earlier work
Text: Auristatin is a microtubule-destroying drug. It was derived from marine shell-less mollusk Dolabella auricularia called dolastatins (Figure 1). After the dolastatin was found, it has been studied in the treatment of cancer, malaria, and fungus. After the successful total synthesis of dolastatin 10, various derivatives have been synthesized, such as monomethyl auristatin E (MMAE) and monomethyl auristatin F (MMAF). MMAE and MMAF were developed by Seattle Genetics and used as payloads for ADC. MMAF and MMAE have their advantages and disadvantages. MMAE is m ...

[6] = processed rat plasma QC in auto-sampler, 10 °C, high QC
[7] = processed rat plasma QC in auto-sampler, 10 °C, low QC

Compound: CC[C@H](C)[C@@H]([C@@H](CC(=O)N1CCC[C@H]1[C@H](OC)[C@@H](C)C(=O)N[C@@H](Cc1ccccc1)C(=O)O)OC)N(C)C(=O)[C@@H](NC(=O)[C@@H](NC)C(C)C)C(C)C [MMAF, monomethyl auristatin F] (H-[NMeV]V[Dil][Dolaproine]F-OH)
- clearance ([1]; Sprague-Dawley, plasma, IV 5 mg/kg, non-compartmental analysis, read-out: Clearance (CL)): 77.3 mL/min/kg
- Vd ([1]; Sprague-Dawley, plasma, IV 5 mg/kg, non-compartmental analysis, read-out: Vss): 1.06 L/kg
- AUC(0-t) ([1]; Sprague-Dawley, IV 5 mg/kg, plasma, non-compartmental analysis): 1090 ng·h/mL
- Cmax ([1]; Sprague-Dawley, IV 5 mg/kg, plasma, non-compartmental analysis, LC-TOF-MS/MS): 8280 ng/mL
- Bioavailability ([1]; PO 10 mg/kg vs IV 5 mg/kg): 0%
- Systemic exposure after oral dosing ([1]; PO 10 mg/kg, plasma): no systemic exposure was observed
- Post-preparative stability, area ratio after 12 h as % of first injection [2, 6]: 99.98%
- Post-preparative stability, area ratio of 10th injection (after 12hr) [2, 6]: 7.43
- Post-preparative stability, area ratio after 12 h as % of first injection [2, 7]: 97.93%
- Post-preparative stability, area ratio of 10th injection (after 12hr) [2, 7]: 0.61
- Post-preparative stability, area ratio of 1st injection [2, 6]: 7.43
- Short-term stability, mean concentration ([2]; rat plasma, high QC 1820 ng/mL, LC-TOF-MS/MS, mean of n = 3): 1884.23 ng/mL
- Short-term stability, accuracy % ([2]; rat plasma, high QC 1820 ng/mL): 103.53%
- Short-term stability, mean concentration ([2]; rat plasma, low QC 165.46 ng/mL, LC-TOF-MS/MS, mean of n = 3): 149.90 ng/mL
- Short-term stability, accuracy % ([2]; rat plasma, low QC 165.46 ng/mL): 90.60%
- Long-term stability, mean concentration ([2]; rat plasma, −80 °C, 4 weeks, high QC 1820 ng/mL, LC-TOF-MS/MS, mean of n = 3): 1657.96 ng/mL
- Long-term stability, accuracy % ([2]; rat plasma, −80 °C, 4 weeks, high QC 1820 ng/mL): 91.10%
- Long-term stability, accuracy % ([2]; rat plasma, −80 °C, 4 weeks, low QC 165.46 ng/mL): 95.46%
- Freeze-thaw stability, accuracy % ([2]; rat plasma, −80 °C, high QC 1820 ng/mL): 91.10%
- Freeze-thaw stability, accuracy % ([2]; rat plasma, −80 °C, low QC 165.46 ng/mL): 95.46%
- Stability in rat plasma (in words) ([2]; short-term, long-term, freeze/thaw and post-preparative conditions, acceptance ±15%): stable
- Number of metabolites tentatively identified [3]: four
- Number of metabolites tentatively identified [4]: seven
- Aggregation tendency relative to MMAE [5]: lower aggregation tendency
- Hydrophilicity relative to MMAE [5]: more hydrophilic
- Systemic toxicity relative to MMAE [5]: lower systemic toxicity

Compound: monomethyl auristatin E [MMAE]
- IC50 relative to MMAF [5]: lower IC50 than MMAF
- Membrane permeability relative to MMAF [5]: more membrane-permeable
